Columns and labels:
M1 muscarinic receptor = molecular target: T1, M1 muscarinic receptor (Homo sapiens, UniProt P11229); experiment: Functional mobilization of intracellular calcium (FLIPR) in CHO cells expressing M1 muscarinic receptor; format: cell-based; settings: for M1 Activity: CHO cells expressing M1, calcium mobilization; for Emax: CHO, 100% efficacy is the maximum response obtained with the Carbachol control
T1 construct: expressed in transfected cells; host or cells: CHO (M1-CHO recombinant cell line)
T1 sequence (P11229 1-460): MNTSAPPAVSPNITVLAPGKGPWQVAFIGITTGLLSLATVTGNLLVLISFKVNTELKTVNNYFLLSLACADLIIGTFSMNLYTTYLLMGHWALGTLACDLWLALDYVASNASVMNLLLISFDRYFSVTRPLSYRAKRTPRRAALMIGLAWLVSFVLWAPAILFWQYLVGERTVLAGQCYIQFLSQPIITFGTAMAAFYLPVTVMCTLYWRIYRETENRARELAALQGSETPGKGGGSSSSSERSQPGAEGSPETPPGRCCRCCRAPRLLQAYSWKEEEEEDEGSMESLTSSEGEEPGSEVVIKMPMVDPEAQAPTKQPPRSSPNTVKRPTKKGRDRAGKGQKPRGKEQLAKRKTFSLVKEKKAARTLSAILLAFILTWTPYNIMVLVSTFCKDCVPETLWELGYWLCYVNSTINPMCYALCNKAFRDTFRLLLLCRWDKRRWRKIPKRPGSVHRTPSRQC
Procedure: (§1) VI. Assays for Detecting and Measuring Inhibition Properties of Compounds Functional Mobilization of Intracellular Calcium to Determine Muscarinic Receptor Activity:
(§2) CHO cells expressing muscarinic receptors (M1 to M5) are grown as monolayers in tissue culture flasks at 37° C. in a humidified atmosphere containing 5% CO2 and passaged every 3-5 days. The growth media is Dulbecco's modified eagles medium (DMEM, Gibco Cat# 12430-054), containing 25 mM Hepes and supplemented with Fetal Bovine Serum (Hyclone, cat# SH30071.03), 0.1 mM of MEM non-essential amino acids (GIBCO, Cat# 11140-050), 1 mM MEM Sodium Pyruvate (GIBCO Cat# 11360-070) and 100 units/ml of Penicillin G and 100 μg/ml of Streptomycin (GIBCO Cat# 15140-122). The recombinant muscarinic receptor cell lines are grown under antibiotic pressure with media containing 25 μg/ml zeocin and 500 μg/ml G418 (M1-CHO), 4 μg/ml puromycin, 50 μg/ml zeocin and 2.5 μg/ml blasticidin (M2 and M4-CHO) or 50 μg/ml zeocin and 4 μg/ml puromycin (M3 and M5-CHO).
(§3) Cells are harvested at 80-90% confluence using Versene (GIBCO Cat# 15040-066), collected by centrifugation and seeded 18-24 hours prior to running the calcium assay at a density of 5,000-10,000 cells/well in […], clear-bottomed 384-well plates (BD Biocoat, poly-D-lysine, Cat#356663). The day of the experiment, the cells are washed with a plate washer (Bioteck Instruments, ELX 405) using bath buffer (140-mM NaCl, 4.5-mM KCl, 2-mM CaCl2, 1-mM MgCl2, 10-mM Hepes-Na, 10-mM Glucose, pH 7.4, with NaOH) containing 1 mM Probenecid. Next, the calcium dye Fluo-3 (25 μl/well of Fluo-3 μM at 4 μM, Molecular Probes F-1241, in Bath 1 buffer containing 1 mM Probenecid) is added to the 25 μl of Bath 1 remaining in each well after the plate wash and the dye is loaded at 37° C. in the tissue culture incubator for 60-90 min. The fluorescent dye is removed using the plate washer with Bath 1 containing 1 mM Probenecid, leaving 25 μl/well of this solution after the wash. Alternatively, cells can be loaded with the calcium indicator from Molecular Devices (Calcium 3 Assay Reagents, Cat # R7181) adding 5 μl of a 5× solution dye in Bath 1 containing 1 mM Probenecid (10 ml per dye flask cat# R7182 to generate a solution 20×) to 20 μl of the same buffer. After loading for 60 min, the experiment can be run without having to remove the dye.
(§4) Compounds are prepared at a 2× fold concentration in a 96-well plate (round bottom, Costar Corning cat# 3656), by reconstituting the pre-spotted compounds in bath 1 containing 1 mM probenecid. The final concentration DMSO is 0.5%, and the amount of DMSO is normalized across the assay plate. To determine an agonist action of the compounds on muscarinic receptors, the reconstituted compounds are added (25 μl compound/well) to the cell assay plate (containing 25 μl/well) using the multi-channel robotic system of the FLIPR 3 Instrument (Molecular Devices, Sunnyvale, Calif.). To determine a functional inhibitory-action of the compounds on muscarinic receptors, the reconstituted compounds are added (25 μl compound/well) to the assay plate and pre-incubated for 15 min prior to adding 25 μl of Carbachol at 3× the EC80 for each muscarinic subtype. Alternatively, the compounds can be co-applied simultaneously with the agonist. In both assay modes, the fluorescence is recorded for 60 sec (excitation wavelength is […] and emission wavelength 540 nm) using the FLIPR 3 instrument.
(§5) The potency, efficacy and selectivity of the muscarinic compounds were evaluated by screening the compound activity across the whole family (M1 to M5 cells). Compounds were also screened for activity on other proteins such as other GPCRs and ion channels to determine selectivity on M4 receptors.
(§6) Examples of activities and efficacies of the muscarinic compounds of formulae (I, Ia, and Ib) on modulating M1 and M4 receptors are shown below in Table 8. […]

M4 muscarinic receptor = molecular target: T2, M4 muscarinic receptor (Homo sapiens, UniProt P08173); experiment: Functional mobilization of intracellular calcium (FLIPR) in CHO cells expressing M4 muscarinic receptor; format: cell-based; settings: for M4 Activity: CHO cells expressing M4, calcium mobilization; for Emax: CHO, 100% efficacy is the maximum response obtained with the Carbachol control
T2 construct: expressed in transfected cells; host or cells: CHO (M4-CHO recombinant cell line)
T2 sequence (P08173 1-479): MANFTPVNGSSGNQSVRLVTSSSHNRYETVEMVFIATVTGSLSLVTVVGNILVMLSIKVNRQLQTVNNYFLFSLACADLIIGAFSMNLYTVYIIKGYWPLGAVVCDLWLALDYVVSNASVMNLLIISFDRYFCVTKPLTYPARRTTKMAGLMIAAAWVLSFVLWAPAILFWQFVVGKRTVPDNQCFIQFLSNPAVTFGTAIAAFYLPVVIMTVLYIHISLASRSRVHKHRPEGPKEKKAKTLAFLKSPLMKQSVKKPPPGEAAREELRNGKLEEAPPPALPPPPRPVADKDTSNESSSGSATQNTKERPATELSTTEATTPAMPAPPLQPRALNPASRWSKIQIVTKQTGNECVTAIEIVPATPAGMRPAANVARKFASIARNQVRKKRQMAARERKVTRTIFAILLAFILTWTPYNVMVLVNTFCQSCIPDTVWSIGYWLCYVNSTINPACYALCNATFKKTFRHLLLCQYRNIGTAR
Procedure: as §1, §2, §3, §4, §5, §6

Compound	M1 Activity (M1 muscarinic receptor)	Emax (M1 muscarinic receptor)	M4 Activity (M4 muscarinic receptor)	Emax (M4 muscarinic receptor)
CCC(CC)NC(=O)C1=CC2(CCN(C3CCCCCC3)CC2)c2ccccc21 [Compound No. 3]	+ (activity was measured to be greater than 10.0 μM)	< 25%	++ (activity was measured to be from 2.0 μM to 10.0 μM)	25 to 100%
CCOC(=O)N1CCC(N2CCC3(CC=C(C#N)c4ccccc43)CC2)CC1 [compound 63]	+++ (activity was measured to be less than 2.0 μM)	25 to 100%	+++ (activity was measured to be less than 2.0 μM)	25 to 100%
CNC(=O)C1=CC2(CCN(C3CCCCCC3)CC2)c2ccccc21 [compound 41]	++ (activity was measured to be from 2.0 μM to 10.0 μM)	25 to 100%	+++ (activity was measured to be less than 2.0 μM)	25 to 100%
CC(C)(C)CCN1CCC2(CC=C(C#N)c3ccccc32)CC1 [compound 51, 1′-(3,3-dimethylbutyl)-2H-spiro[naphthalene-1,4′-piperidine]-4-carbonitrile]	+++ (activity was measured to be less than 2.0 μM)	25 to 100%	+++ (activity was measured to be less than 2.0 μM)	25 to 100%
CCOC(=O)N1C2CCC1CC(N1CCC3(C=C(C(=O)NC(CC)CC)c4ccccc43)CC1)C2 (stereo not shown) [compound 75]	++ (activity was measured to be from 2.0 μM to 10.0 μM)	25 to 100%	+++ (activity was measured to be less than 2.0 μM)	25 to 100%
CCC(CC)NC(=O)C1=CC2(CCN(C3CCN(C(C)=O)CC3)CC2)c2ccccc21 [compound 10]	+ (activity was measured to be greater than 10.0 μM)	< 25%	+ (activity was measured to be greater than 10.0 μM)	< 25%
CNC(=O)C1=CC2(CCN(CCC(C)(C)C)CC2)c2ccccc21 [Compound No. 27, 1′-(3,3-dimethylbutyl)-N-methylspiro[indene-1,4′-piperidine]-3-carboxamide]	+++ (activity was measured to be less than 2.0 μM)	25 to 100%	+++ (activity was measured to be less than 2.0 μM)	25 to 100%
CCC(CC)NC(=O)C1=CC2(CCN(C3CCN(C(=O)C4CC4)CC3)CC2)c2ccccc21 [compound 45]	+ (activity was measured to be greater than 10.0 μM)	< 25%	+ (activity was measured to be greater than 10.0 μM)	25 to 100%
CCN(CC)C(=O)C1=CC2(CCN(CCC(C)(C)C)CC2)c2ccccc21 [compound 26]	+ (activity was measured to be greater than 10.0 μM)	< 25%	+ (activity was measured to be greater than 10.0 μM)	< 25%
CC(C)NC(=O)C1=CC2(CCN(CCC(C)(C)C)CC2)c2ccccc21 [compound 70]	+ (activity was measured to be greater than 10.0 μM)	25 to 100%	+ (activity was measured to be greater than 10.0 μM)	25 to 100%
CCC(CC)NC(=O)C1=CC2(CCN(CC3CC4C=CC3C4)CC2)c2ccccc21 (stereo not shown) [compound 30]	+ (activity was measured to be greater than 10.0 μM)	< 25%	+++ (activity was measured to be less than 2.0 μM)	25 to 100%
CNC(=O)C1=CC2(CCN(CCC3CCSCC3)CC2)c2ccccc21 [compound 9]	+ (activity was measured to be greater than 10.0 μM)	25 to 100%	+ (activity was measured to be greater than 10.0 μM)	< 25%
CCC(CC)NC(=O)C1=CC2(CCN(CCC(C)(C)C)CC2)c2ccccc21 [compound 39]	+ (activity was measured to be greater than 10.0 μM)	< 25%	++ (activity was measured to be from 2.0 μM to 10.0 μM)	25 to 100%
O=C(NC1CCC1)C1=CC2(CCN(CC3CC4C=CC3C4)CC2)c2ccccc21 (stereo not shown) [compound 47]	++ (activity was measured to be from 2.0 μM to 10.0 μM)	25 to 100%	+++ (activity was measured to be less than 2.0 μM)	25 to 100%
CNC(=O)C1=CC2(CCN(CCC(C)CCCC(C)(C)OC)CC2)c2ccccc21 (stereo not shown) [compound 19]	+ (activity was measured to be greater than 10.0 μM)	25 to 100%	+ (activity was measured to be greater than 10.0 μM)	< 25%
O=C(O)C1=CC2(CCN(C3C[C@@H]4CC[C@@H]3C4)CC2)c2ccccc21 (stereo in doubt) [Compound No. 48, 1′-(bicyclo[2.2.1]heptan-2-yl)spiro[indene-1,4′-piperidine]-3-carboxylic acid]	+ (activity was measured to be greater than 10.0 μM)	25 to 100%	+ (activity was measured to be greater than 10.0 μM)	25 to 100%
CC(C)NC(=O)C1=CCC2(CCN(C3C[C@@H]4CC[C@@H]3C4)CC2)c2ccccc21 (stereo partly shown) [compound 36]	+ (activity was measured to be greater than 10.0 μM)	< 25%	+ (activity was measured to be greater than 10.0 μM)	< 25%
CN(C)C(=O)C1=CC2(CCN(CC3CCCCC3)CC2)c2ccccc21 [compound 59]	+ (activity was measured to be greater than 10.0 μM)	< 25%	+++ (activity was measured to be less than 2.0 μM)	25 to 100%
N#CC1=CCC2(CCN(C3C[C@@H]4CC[C@@H]3C4)CC2)c2ccccc21 (stereo partly shown) [compound 35]	+ (activity was measured to be greater than 10.0 μM)	< 25%	++ (activity was measured to be from 2.0 μM to 10.0 μM)	< 25%

Source: patent US7858790B2, “Modulators of muscarinic receptors” (Vertex Pharmaceuticals Incorporated, priority 2006, dated 2010)
